Experimental data published in patent publication US7863449B2, “Modulators of muscarinic receptors” (Vertex Pharmaceuticals Incorporated, priority 2004, dated 2011).
Structures can show the parent of a compound that is named as a salt. Each block holds one molecule with its values, some of them ahead of it.

Key:
[1] = molecular target: T1, M1 muscarinic receptor (Homo sapiens, UniProt P11229); experiment: Functional mobilization of intracellular calcium (FLIPR), M1-CHO cells; type: cell-based; conditions: for Emax: 100% efficacy is the maximum response obtained using Carbachol as a control; for M1 Activity: M1-CHO cells, FLIPR calcium mobilization
T1 construct: expressed in transfected cells; host or cells: CHO (M1-CHO)
T1 sequence (P11229 1-460): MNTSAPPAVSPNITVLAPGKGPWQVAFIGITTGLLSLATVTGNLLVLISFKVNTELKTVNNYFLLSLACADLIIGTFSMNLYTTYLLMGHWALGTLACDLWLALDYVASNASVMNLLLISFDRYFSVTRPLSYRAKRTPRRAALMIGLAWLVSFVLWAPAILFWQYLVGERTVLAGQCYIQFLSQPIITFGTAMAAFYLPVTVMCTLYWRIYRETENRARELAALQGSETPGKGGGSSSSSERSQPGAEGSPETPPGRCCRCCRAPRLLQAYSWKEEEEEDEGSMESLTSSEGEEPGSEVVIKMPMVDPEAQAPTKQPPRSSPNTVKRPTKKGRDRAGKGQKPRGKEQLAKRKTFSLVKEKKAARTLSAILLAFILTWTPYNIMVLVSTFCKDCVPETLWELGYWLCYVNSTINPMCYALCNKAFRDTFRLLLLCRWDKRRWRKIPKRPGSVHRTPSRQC
Method in brief: (§1)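 Calcium flux recorded 60 s (ex 488, em 540 nm) in dye-loaded M1- or M4-CHO cells in pH 7.4 buffer with 1 mM probenecid. Inhibition measured against carbachol EC80 after 15 min compound pre-incubation or co-addition; agonism measured by compound addition alone. Final DMSO 0.5%.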

[2] = molecular target: T2, M4 muscarinic receptor (Homo sapiens, UniProt P08173); experiment: Functional mobilization of intracellular calcium (FLIPR), M4-CHO cells; type: cell-based; conditions: for Emax: 100% efficacy is the maximum response obtained using Carbachol as a control; for M4 Activity: M4-CHO cells, FLIPR calcium mobilization
T2 construct: expressed in transfected cells; host or cells: CHO (M4-CHO)
T2 sequence (P08173 1-479): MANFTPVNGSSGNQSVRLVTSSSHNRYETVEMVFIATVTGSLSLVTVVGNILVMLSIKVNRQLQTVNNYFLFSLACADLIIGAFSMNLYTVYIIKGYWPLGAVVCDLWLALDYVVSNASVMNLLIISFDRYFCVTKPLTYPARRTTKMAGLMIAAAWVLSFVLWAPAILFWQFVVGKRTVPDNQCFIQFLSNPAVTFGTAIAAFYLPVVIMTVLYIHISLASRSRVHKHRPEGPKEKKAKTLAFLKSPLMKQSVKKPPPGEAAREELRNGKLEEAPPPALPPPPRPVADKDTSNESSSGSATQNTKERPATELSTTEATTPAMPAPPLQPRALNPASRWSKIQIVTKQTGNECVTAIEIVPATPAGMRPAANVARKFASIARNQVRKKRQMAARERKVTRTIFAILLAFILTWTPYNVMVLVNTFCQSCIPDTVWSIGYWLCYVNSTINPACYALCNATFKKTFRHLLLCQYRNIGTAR
Method in brief: as §1

Compound: CS(=O)(=O)N1Cc2ccccc2C2(CCN(C3CC4CCC(C3)N4C(=O)O[C@@H]3CCOC3)CC2)C1 (stereo partly drawn) [compound 222]
- Emax [1]: 25 to 100%
- M1 Activity [1]: +++ (activity was measured to be less than 1.0 μM)
- Emax [2]: 25 to 100%
- M4 Activity [2]: +++ (activity was measured to be less than 1.0 μM)

- Emax [1]: 25 to 100%
- Emax [2]: < 25%
Compound: CC(C)(C)CCN1CCC2(CC1)c1ccccc1C(=O)N2Cc1ccccc1 [compound 130]
- M1 Activity [1]: ++ (activity was measured to be from 1.0 μM to 5.0 μM)
- M4 Activity [2]: + (activity was measured to be greater than 5.0 μM)

Compound: CCOC(=O)N1CCC(N2CCC3(CC2)CN(S(=O)(=O)c2ccc(F)cc2)Cc2ccccc23)CC1 [compound 337]
- Emax [1]: 25 to 100%
- M1 Activity [1]: +++ (activity was measured to be less than 1.0 μM)
- Emax [2]: 25 to 100%
- M4 Activity [2]: +++ (activity was measured to be less than 1.0 μM)

Compound: CCOC(=O)N1C2CCC1CC(N1CCC3(CC1)CN(S(=O)(=O)c1c(C)noc1C)Cc1ccccc13)C2 (stereo not drawn) [compound 246]
- Emax [1]: 25 to 100%
- M1 Activity [1]: +++ (activity was measured to be less than 1.0 μM)
- Emax [2]: > 100%
- M4 Activity [2]: +++ (activity was measured to be less than 1.0 μM)

Compound: CC(=O)N1Cc2ccccc2C2(CCN(Cc3cccc(F)c3)CC2)C1 [compound 247]
- Emax [1]: < 25%
- M1 Activity [1]: + (activity was measured to be greater than 5.0 μM)
- Emax [2]: < 25%
- M4 Activity [2]: + (activity was measured to be greater than 5.0 μM)

Compound: CCCCNC(=O)N1Cc2ccccc2C2(CCN(C3CCN(C(=O)OCC)CC3)CC2)C1 [compound 106]
- Emax [1]: 25 to 100%
- M1 Activity [1]: +++ (activity was measured to be less than 1.0 μM)
- Emax [2]: 25 to 100%
- M4 Activity [2]: +++ (activity was measured to be less than 1.0 μM)

Compound: CCOC(=O)N1CCC(N2CCC3(CC2)CN(C(=O)c2ccno2)Cc2ccccc23)CC1 [compound 46]
- Emax [1]: 25 to 100%
- M1 Activity [1]: +++ (activity was measured to be less than 1.0 μM)
- Emax [2]: 25 to 100%
- M4 Activity [2]: +++ (activity was measured to be less than 1.0 μM)

Compound: CCOC(=O)N1CCC(N2CCC3(CC2)CN(C(C)=O)Cc2ccccc23)CC1 [compound 286]
- Emax [1]: 25 to 100%
- M1 Activity [1]: +++ (activity was measured to be less than 1.0 μM)
- Emax [2]: 25 to 100%
- M4 Activity [2]: +++ (activity was measured to be less than 1.0 μM)

Compound: O=C1OC2(CCN(C[C@H]3C[C@H]4C=C[C@H]3C4)CC2)c2ccc(Cl)cc21 [compound 19]
- Emax [1]: 25 to 100%
- M1 Activity [1]: ++ (activity was measured to be from 1.0 μM to 5.0 μM)
- Emax [2]: < 25%
- M4 Activity [2]: ++ (activity was measured to be from 1.0 μM to 5.0 μM)

Compound: CCOC(=O)N1CCC(N2CCC3(CC2)CN(C(=O)Oc2ccc(F)cc2)Cc2ccccc23)CC1 [compound 342]
- Emax [1]: 25 to 100%
- M1 Activity [1]: +++ (activity was measured to be less than 1.0 μM)
- Emax [2]: 25 to 100%
- M4 Activity [2]: +++ (activity was measured to be less than 1.0 μM)

Compound: CCCC1CCC(N2CCC3(CC2)CN(C(C)=O)Cc2ccccc23)CC1 (stereo not drawn) [compound 326]
- Emax [1]: 25 to 100%
- M1 Activity [1]: +++ (activity was measured to be less than 1.0 μM)
- Emax [2]: 25 to 100%
- M4 Activity [2]: +++ (activity was measured to be less than 1.0 μM)

Compound: Cc1cc(C(=O)N2Cc3ccccc3C3(CCN(C4CC5CCC(C4)N5C(=O)O[C@@H]4CCOC4)CC3)C2)nn1C (stereo partly drawn) [compound 351]
- Emax [1]: 25 to 100%
- M1 Activity [1]: +++ (activity was measured to be less than 1.0 μM)
- Emax [2]: 25 to 100%
- M4 Activity [2]: +++ (activity was measured to be less than 1.0 μM)

Compound: CCOC(=O)N1C2CCC1CC(N1CCC3(CC1)CN(C(=O)c1cc(C)nn1C(C)(C)C)Cc1ccccc13)C2 (stereo not drawn) [compound 15]
- Emax [1]: 25 to 100%
- M1 Activity [1]: +++ (activity was measured to be less than 1.0 μM)
- Emax [2]: 25 to 100%
- M4 Activity [2]: +++ (activity was measured to be less than 1.0 μM)

Compound: CCOC(=O)N1C2CCC1CC(N1CCC3(CC1)CN(S(=O)(=O)c1ccc(-c4ccccc4)cc1)Cc1ccccc13)C2 (stereo not drawn) [compound 245]
- Emax [1]: 25 to 100%
- M1 Activity [1]: ++ (activity was measured to be from 1.0 μM to 5.0 μM)
- Emax [2]: 25 to 100%
- M4 Activity [2]: ++ (activity was measured to be from 1.0 μM to 5.0 μM)

Compound: CCOC(=O)N1C2CCC1CC(N1CCC3(CC1)CN(C(=O)OC1CCCC1)Cc1ccccc13)C2 (stereo not drawn) [compound 14]
- Emax [1]: 25 to 100%
- M1 Activity [1]: +++ (activity was measured to be less than 1.0 μM)
- Emax [2]: 25 to 100%
- M4 Activity [2]: +++ (activity was measured to be less than 1.0 μM)

Compound: COCCOC(=O)N1C2CCC1CC(N1CCC3(CC1)CN(S(=O)(=O)N(C)C)Cc1ccccc13)C2 (stereo not drawn) [compound 249]
- Emax [1]: 25 to 100%
- M1 Activity [1]: +++ (activity was measured to be less than 1.0 μM)
- Emax [2]: 25 to 100%
- M4 Activity [2]: +++ (activity was measured to be less than 1.0 μM)

Compound: CCOC(=O)N1CCC(N2CCC3(CC2)CN(C(=O)c2snnc2C)Cc2ccccc23)CC1 [compound 328]
- Emax [1]: 25 to 100%
- M1 Activity [1]: +++ (activity was measured to be less than 1.0 μM)
- Emax [2]: 25 to 100%
- M4 Activity [2]: +++ (activity was measured to be less than 1.0 μM)

Compound: O=C(C1CC1)N1Cc2ccccc2C2(CCN(C3CC4CCC(C3)N4C(=O)OC3CCC3)CC2)C1 (stereo not drawn) [compound 102]
- Emax [1]: 25 to 100%
- M1 Activity [1]: +++ (activity was measured to be less than 1.0 μM)
- Emax [2]: 25 to 100%
- M4 Activity [2]: +++ (activity was measured to be less than 1.0 μM)

Compound: CCOC(=O)N1C2CCC1CC(N1CCC3(CC1)CN(S(=O)(=O)c1ccccc1Cl)Cc1ccccc13)C2 (stereo not drawn) [compound 69]
- Emax [1]: 25 to 100%
- M1 Activity [1]: +++ (activity was measured to be less than 1.0 μM)
- Emax [2]: 25 to 100%
- M4 Activity [2]: +++ (activity was measured to be less than 1.0 μM)

Compound: COc1ccccc1CN1CCC2(CC1)CN(C(C)=O)Cc1ccccc12 [compound 150]
- Emax [1]: < 25%
- M1 Activity [1]: + (activity was measured to be greater than 5.0 μM)
- Emax [2]: < 25%
- M4 Activity [2]: + (activity was measured to be greater than 5.0 μM)

- Emax [1]: 25 to 100%
- Emax [2]: 25 to 100%
Compound: CC(C)(C)CCN1CCC2(CC1)NC(=O)c1ccccc12 [compound 346]
- M1 Activity [1]: ++ (activity was measured to be from 1.0 μM to 5.0 μM)
- M4 Activity [2]: ++ (activity was measured to be from 1.0 μM to 5.0 μM)

Compound: CC(=O)N1Cc2ccccc2C2(CCN(Cc3ccccn3)CC2)C1 [compound 40]
- Emax [1]: < 25%
- M1 Activity [1]: + (activity was measured to be greater than 5.0 μM)
- Emax [2]: < 25%
- M4 Activity [2]: + (activity was measured to be greater than 5.0 μM)

Compound: CC(=O)N1Cc2ccccc2C2(CCN(CC3CCCCO3)CC2)C1 (stereo not drawn) [compound 58]
- Emax [1]: < 25%
- M1 Activity [1]: + (activity was measured to be greater than 5.0 μM)
- Emax [2]: < 25%
- M4 Activity [2]: + (activity was measured to be greater than 5.0 μM)

Compound: CCOC(=O)N1C2CCC1CC(N1CCC3(CC1)CN(S(=O)(=O)c1ccc(F)cc1)Cc1ccccc13)C2 (stereo not drawn) [compound 205, Ethyl 3-(2-(4-fluorophenylsulfonyl)-2,3-dihydro-1H-spiro-[isoquinoline-4,4′-piperidine]-1′-yl)-8-azabicyclo[3.2.1]-octane-8-carboxylate hydrochloride]
- Emax [1]: 25 to 100%
- M1 Activity [1]: +++ (activity was measured to be less than 1.0 μM)
- Emax [2]: 25 to 100%
- M4 Activity [2]: +++ (activity was measured to be less than 1.0 μM)

Compound: CCOC(=O)N1CCC(CN2CCC3(CC2)CN(C(=O)CC)Cc2ccccc23)CC1 [compound 63]
- Emax [1]: 25 to 100%
- M1 Activity [1]: +++ (activity was measured to be less than 1.0 μM)
- Emax [2]: 25 to 100%
- M4 Activity [2]: +++ (activity was measured to be less than 1.0 μM)

Compound: CCOC(=O)N1CCC(N2CCC3(CC2)CN(C(=O)C2CCCC2)Cc2ccccc23)CC1 [compound 10]
- Emax [1]: 25 to 100%
- M1 Activity [1]: +++ (activity was measured to be less than 1.0 μM)
- Emax [2]: < 25%
- M4 Activity [2]: ++ (activity was measured to be from 1.0 μM to 5.0 μM)

Compound: CCOC(=O)N1C2CCC1CC(N1CCC3(CC1)CN(C(=O)C1CCC1)Cc1ccccc13)C2 (stereo not drawn) [compound 319]
- Emax [1]: 25 to 100%
- M1 Activity [1]: +++ (activity was measured to be less than 1.0 μM)
- Emax [2]: 25 to 100%
- M4 Activity [2]: +++ (activity was measured to be less than 1.0 μM)
